OCC1(O)OC[C@@H](O)[C@H](O)[C@@H]1O (stereo not given in full)
solubility (mole fraction)
Settings	283.15 K	288.15 K	293.15 K	298.15 K	303.15 K	308.15 K	313.15 K	318.15 K	323.15 K
in ethanol	0.00138	0.00168	0.00193	0.00219	0.00245	0.00288	0.00328	0.00395	0.00468
in isopropanol	0.00038	0.00041	0.0006	0.00088	0.00121	0.0015	0.00171	0.00211	0.00261
in methanol	0.00414	0.00553	0.00609	0.00758	0.00892	0.0101	0.0121	0.0155	0.0166
in n-propanol	0.00038	0.00043	0.00062	0.00088	0.00127	0.00164	0.002	0.00238	0.00272
in water	0.0976	0.106	0.116	0.124	0.135	0.146	0.155	0.166	0.175

From BigSolDB 2.1
